# Measurements reported in patent publication US20250353891A1 (MEDIMMUNE LIMITED, priority 2022, published 2025).
# Starred links: 1 amine or outer side, 2 acyl side, 3 side chain; linkers in the order of their positions; H or OH if unused. Non-standard residues stand in square brackets, D forms with d. Residues, ends and D or L forms follow the SMILES beside them. Groups on a side chain read outwards from the residue. *: point of attachment. C20 diacid = O=C(O)CCCCCCCCCCCCCCCCCCC(=O)*; C18 diacid = O=C(O)CCCCCCCCCCCCCCCCC(=O)*; γGlu = O=C(O)[C@H](CCC(=O)[*:2])N[*:1]; αMeF = C[C@](N)(Cc1ccccc1)C(=O)O; AEEA = NCCOCCOCC(=O)O; Aib = CC(C)(N)C(=O)O
# What was measured:
# [1] = target: human GLP-1 receptor (hGLP-1R) (Homo sapiens, UniProt P43220); experiment: cAMP production (HTRF) in CHO cells expressing hGLP-1R; format: cell-based; set-up: expressed in transfected cells; details: for % Relative Potency Ratio: % GLP-1R activity relative to GLP-1 / % GlucR activity relative to glucagon; for EC50: cAMP, CHO cells, 0.1% BSA, geometric mean, read-out: hGLP-1R EC50
# Procedure, shortened: (§1)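 Potency values represent EC50 from 4-parameter logistic curves of HTRF % Delta F signal. Receptor-expressing CHO cells (hGCGR 2×10^5 cells/mL, hGLP-1R 1×10^5 cells/mL) were exposed for 30 min at room temperature before two-step cAMP detection.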
# [2] = target: human glucagon receptor (hGCGR) (Homo sapiens, UniProt P47871); experiment: cAMP production (HTRF) in CHO cells expressing hGCGR; format: cell-based; set-up: expressed in transfected cells; details: cAMP, CHO cells, 0.1% BSA, geometric mean; read-out: hGluc-R EC50
# Procedure, shortened: as §1
# Sequence of human glucagon receptor (hGCGR) (P47871 26-477): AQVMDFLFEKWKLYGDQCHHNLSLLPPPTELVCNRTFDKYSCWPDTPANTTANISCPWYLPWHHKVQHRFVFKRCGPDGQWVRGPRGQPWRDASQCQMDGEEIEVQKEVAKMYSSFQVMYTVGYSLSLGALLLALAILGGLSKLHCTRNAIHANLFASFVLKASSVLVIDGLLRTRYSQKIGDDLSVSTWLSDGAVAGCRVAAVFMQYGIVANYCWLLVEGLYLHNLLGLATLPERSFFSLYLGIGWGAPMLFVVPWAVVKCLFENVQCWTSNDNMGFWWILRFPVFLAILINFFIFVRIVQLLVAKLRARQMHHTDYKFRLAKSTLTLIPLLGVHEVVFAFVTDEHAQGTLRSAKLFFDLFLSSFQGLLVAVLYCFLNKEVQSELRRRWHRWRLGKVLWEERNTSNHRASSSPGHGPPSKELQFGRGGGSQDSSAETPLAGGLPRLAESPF
# Sequence of human GLP-1 receptor (hGLP-1R) (P43220 24-463): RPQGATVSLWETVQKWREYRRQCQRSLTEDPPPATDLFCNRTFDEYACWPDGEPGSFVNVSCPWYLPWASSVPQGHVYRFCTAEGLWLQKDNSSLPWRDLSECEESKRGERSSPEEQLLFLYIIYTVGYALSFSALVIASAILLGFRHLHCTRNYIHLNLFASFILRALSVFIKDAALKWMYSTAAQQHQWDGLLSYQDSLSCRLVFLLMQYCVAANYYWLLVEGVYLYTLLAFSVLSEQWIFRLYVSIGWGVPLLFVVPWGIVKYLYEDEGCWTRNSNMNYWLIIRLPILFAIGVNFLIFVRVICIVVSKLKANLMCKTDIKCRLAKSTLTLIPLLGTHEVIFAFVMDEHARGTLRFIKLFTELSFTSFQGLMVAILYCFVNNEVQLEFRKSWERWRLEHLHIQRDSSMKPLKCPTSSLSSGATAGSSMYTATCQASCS
% Relative Potency Ratio [1],EC50 [1] [nM],EC50 [2] [nM],Structure (SMILES)
216.6,0.0461,5.05,CC[C@H](C)[C@H](NC(=O)[C@H](Cc1c[nH]c2ccccc12)NC(=O)[C@H](CCCCNC(=O)COCCOCCNC(=O)COCCOCCNC(=O)CC[C@H](NC(=O)CCCCCCCCCCCCCCCCC(=O)O)C(=O)O)NC(=O)[C@@H](NC(=O)[C@H](Cc1ccccc1)NC(=O)[C@H](CC(=O)O)NC(=O)[C@H](CCC(N)=O)NC(=O)[C@H](C)NC(=O)[C@H](C)NC(=O)[C@H](CCCNC(=N)N)NC(=O)[C@H](CO)NC(=O)[C@H](CC(=O)O)NC(=O)[C@H](CC(C)C)NC(=O)[C@](C)(Cc1ccccc1)NC(=O)[C@H](CCCCN)NC(=O)[C@H](CO)NC(=O)[C@@H](NC(=O)[C@H](CC(=O)O)NC(=O)[C@H](CO)NC(=O)[C@@H](NC(=O)[C@](C)(Cc1ccccc1)NC(=O)[C@H](CO)NC(=O)CNC(=O)[C@@H](NC(=O)C(C)(C)NC(=O)[C@@H](N)Cc1c[nH]cn1)[C@@H](C)CC)[C@@H](C)O)C(C)C)C(C)C)C(=O)N[C@@H](C)C(=O)N[C@@H](CC(N)=O)C(=O)N[C@H](C(N)=O)[C@@H](C)O [Peptide 359] (H-H[Aib]IGS[αMeF]TSDVSK[αMeF]LDSRAAQDFVK([AEEA-AEEA-γGlu-C18 diacid])WIANT-NH2)
103.5,0.108,5.64,CC[C@H](C)[C@H](NC(=O)[C@H](Cc1c[nH]c2ccccc12)NC(=O)[C@H](CCCCNC(=O)COCCOCCNC(=O)COCCOCCNC(=O)CC[C@H](NC(=O)CCCCCCCCCCCCCCCCCCC(=O)O)C(=O)O)NC(=O)[C@@H](NC(=O)[C@H](Cc1ccccc1)NC(=O)[C@H](CC(=O)O)NC(=O)[C@H](CCC(N)=O)NC(=O)[C@H](C)NC(=O)[C@H](C)NC(=O)[C@H](CCCNC(=N)N)NC(=O)[C@H](CO)NC(=O)[C@H](CC(=O)O)NC(=O)[C@H](CC(C)C)NC(=O)[C@](C)(Cc1ccccc1)NC(=O)[C@H](CCCCN)NC(=O)[C@H](CO)NC(=O)[C@@H](NC(=O)[C@H](CC(=O)O)NC(=O)[C@H](CO)NC(=O)[C@@H](NC(=O)[C@](C)(Cc1ccccc1)NC(=O)[C@H](CO)NC(=O)CNC(=O)[C@@H](NC(=O)C(C)(C)NC(=O)[C@@H](N)Cc1c[nH]cn1)[C@@H](C)CC)[C@@H](C)O)C(C)C)C(C)C)C(=O)N[C@@H](C)C(=O)N[C@@H](CC(N)=O)C(=O)N[C@H](C(N)=O)[C@@H](C)O [Peptide 360] (H-H[Aib]IGS[αMeF]TSDVSK[αMeF]LDSRAAQDFVK([AEEA-AEEA-γGlu-C20 diacid])WIANT-NH2; N-terminus assumed)
1.5,0.0548,0.0428,CC[C@H](C)[C@H](NC(=O)[C@H](Cc1c[nH]c2ccccc12)NC(=O)[C@H](CCCCNC(=O)COCCOCCNC(=O)COCCOCCNC(=O)CC[C@H](NC(=O)CC[C@H](NC(=O)CCCCCCCCCCCCCCCCC(=O)O)C(=O)O)C(=O)O)NC(=O)[C@@H](NC(=O)[C@H](Cc1ccccc1)NC(=O)[C@H](CC(=O)O)NC(=O)[C@H](CCC(N)=O)NC(=O)[C@H](C)NC(=O)[C@H](C)NC(=O)[C@H](CCCNC(=N)N)NC(=O)[C@H](CO)NC(=O)[C@H](CC(=O)O)NC(=O)[C@H](CC(C)C)NC(=O)[C@](C)(Cc1ccccc1)NC(=O)[C@H](CCCCN)NC(=O)[C@H](CO)NC(=O)[C@@H](NC(=O)[C@H](CC(=O)O)NC(=O)[C@H](CO)NC(=O)[C@@H](NC(=O)[C@](C)(Cc1ccccc1)NC(=O)[C@H](CO)NC(=O)CNC(=O)[C@H](Cc1c[nH]cn1)NC(=O)C(C)(C)NC(=O)[C@@H](N)Cc1c[nH]cn1)[C@@H](C)O)C(C)C)C(C)C)C(=O)N[C@@H](C)C(=O)N[C@@H](CC(N)=O)C(=O)N[C@H](C(N)=O)[C@@H](C)O [Peptide 362] (H-H[Aib]HGS[αMeF]TSDVSK[αMeF]LDSRAAQDFVK([AEEA-AEEA-γGlu-γGlu-C18 diacid])WIANT-NH2; N-terminus assumed)
